Measured values as given in patent US12064502B2, “Peptide exhibiting wrinkle-improving activity and uses thereof” (CAREGEN CO., LTD., priority 2017, dated 2024).
Where “and” joins values, the source holds several entries; their conditions need not be identical. Identical values can stand only once.

How the values were obtained:
Mouse fibroblast NIH3T3 = test: Promotion of proliferation of fibroblasts (MTT assay); assay type: cell-based; details: NIH3T3, 3 days; for Fibroblast proliferation (result in words): 10 μM or 50 μM; for Fibroblast proliferation (%): MTT, control = 100
Experimental: Mouse fibroblast NIH3T3 was seeded in a 96-well plate at a density of 5×10^3 cells/well, and then cultured overnight. Subsequently, the media were changed to 0.05% serum-containing media. Then, treatment with the positive control, i.e., 100 nM bFGF, and 10 μM or 50 μM of the peptide consisting of an amino acid sequence of SEQ ID NO: 1, 2, 3, or 4 were performed and cultured for 3 days. Then, 4 mg/mL MTT solution treatment was performed, and the reaction was carried out for 4 hours. Then, the resulting formazan was dissolved by treatment with dimethyl sulfoxide (hereinafter referred to as “DMSO”), and the absorbance at 560 nm was measured using a microplate reader.

Human keratinocyte HaCaT = test: Promotion of proliferation of keratinocytes (MTT assay); assay type: cell-based; details: 3 days, control = 100
Experimental: Human keratinocyte HaCaT was seeded in a 6-well plate at a density of 3×10^5 cells/well, and then cultured overnight. Subsequently, the media were changed to 0.05% serum-containing media. Then, treatment with the positive control, i.e., 10 nM EGF, and 10 μM or 50 μM of the peptide consisting of an amino acid sequence of SEQ ID NO: 1, 2, 3, or 4 were performed and cultured for 3 days. Then, 4 mg/mL MTT solution treatment was performed, and the reaction was carried out for 4 hours. Then, the resulting formazan was dissolved by treatment with dimethyl sulfoxide (hereinafter referred to as “DMSO”), and the absorbance at 560 nm was measured using a microplate reader.

[1] = tested on: MAPK (ERK, p38, and JNK) and AKT; test: Phosphorylation level of MAPK and AKT in fibroblasts (western blotting); assay type: cell-based, mouse; details: 10 μM or 50 μM, NIH3T3, 30 minutes
Experimental: Mouse fibroblast NIH3T3 was seeded in a 6-well plate at a density of 5×10^3 cells/well, and then cultured overnight. Subsequently, the media were changed to 0.05% FBS-containing media. Then, treatment with the positive control, i.e., 100 nM bFGF, and 10 μM or 50 μM of the peptide consisting of an amino acid sequence of SEQ ID NO: 1, 2, 3, or 4 were performed and cultured for 30 minutes. Then, the cells were collected to prepare cell lysate. Then, western blotting was performed using P-MAPK (p-Erk, p-JNK, p-p38) and p-Akt or actin antibody (Santacruz Biotechnology, USA).

[2] = tested on: collagen1a, fibronectin, elastin mRNA; test: RT-PCR of collagen1a, fibronectin and elastin in fibroblasts; assay type: cell-based, mouse; details: 10 μM or 50 μM, NIH3T3, 24 hours
Experimental: Mouse fibroblast NIH3T3 was seeded in a 6-well plate at a density of 5×10^3 cells/well, and then cultured overnight. Subsequently, the media were changed to 0.05% FBS-containing media, followed by culturing for 4 hours. Then, treatment with the positive control, i.e., 100 nM IGF-1, and 10 μM or 50 μM of the peptide consisting of an amino acid sequence of SEQ ID NO: 1, 2, 3, or 4 were performed and cultured for 24 hours. Then, the cells were cultured and collected to isolate RNA. cDNA was synthesized using a cDNA synthesis kit (Intron, Korea) after quantification of RNA, and PCR was carried out using primers of each of PCR premix (Intron, Korea) and collagen1a, fibronectin, elastin, GAPDH in Table 4. Then, the cells were run on 5% agarose gel, and degrees of mRNA expression of the growth factors were compared in each peptide treatment condition.

Procollagen1a = Procollagen1a ELISA; assay type: cell-based, mouse; details: for Pro-collagen1a protein expression (result in words): NIH3T3, 72 hours, ELISA; for Procollagen1a expression (%): NIH3T3 medium, 72 hours, control = 100
Experimental: Mouse fibroblast NIH3T3 was seeded in a 6-well plate at a density of 5×10^3 cells/well, and then cultured overnight. Subsequently, the media were changed to 0.05% FBS-containing media, followed by culturing for 4 hours. Then, treatment with the positive control, i.e., 100 nM IGF-1, and the peptide consisting of an amino acid sequence of SEQ ID NO: 1, 2, 3, or 4 were performed and cultured for 72 hours. Then, the media were collected. The amount in the medium was measured using Procollagen1a ELISA kit (Usbiological Lifescience, USA).

HA = HA ELISA; assay type: cell-based, human; details: 72 hours; for HA expression: HaCaT medium, control 251
Experimental: Human keratinocyte HaCaT was seeded in a 6-well plate at a density of 3×10^5 cells/well, and then cultured overnight. The media were changed to 0.05% FBS-containing media, followed by culturing for 4 hours. Then, treatment with the positive control, i.e., 100 nM IGF-1, and the peptide consisting of an amino acid sequence of SEQ ID NO: 2 were performed and cultured for 72 hours. Then, the media were collected. An HA ELISA kit (Echelon, USA) was used to measure an amount thereof.

ERK and p38 = test: Phosphorylation level of MAPK and AKT in keratinocytes (western blotting); assay type: cell-based, human; details: 10 μM or 50 μM, HaCaT, 30 minutes
Experimental: Human keratinocyte HaCaT was seeded in a 6-well plate at a density of 3×10^5 cells/well, and then cultured overnight. Subsequently, the media were changed to 0.05% FBS-containing media. Then, treatment with the positive control, i.e., 10 nM EGF, and 10 μM or 50 μM of the peptide consisting of an amino acid sequence of SEQ ID NO: 1 or 2 were performed and cultured for 30 minutes. Then, the cells were collected to prepare cell lysate. Then, western blotting was performed using P-MAPK (p-Erk, p-JNK, p-p38) and p-Akt antibody (Santacruz Biotechnology, USA).

AQP3 = test: RT-PCR of AQP3 (Aquaporin3) and SIRT1 in keratinocytes; assay type: cell-based, human; details: 10 μM or 50 μM, HaCaT, 24 hours
Experimental: Human keratinocyte HaCaT was seeded in a 6-well plate at a density of 3×10^5 cells/well, and then cultured overnight. Subsequently, the media were changed to 0.05% FBS-containing media, followed by culturing for 4 hours. Then, treatment with the positive control, i.e., 100 nM EGF, and 10 μM or 50 μM of the peptide consisting of an amino acid sequence of SEQ ID NO: 1 or 2 were performed and cultured for 24 hours. Then, the cells were cultured and collected to isolate RNA. cDNA was synthesized using a cDNA synthesis kit (Intron, Korea) after quantification of RNA, and PCR was carried out using primers of each of PCR premix (Intron, Korea) and AQP3, SIRT1, and GAPDH in Table 5. Then, the cells were run on 5% agarose gel, and degrees of mRNA expression of the growth factors were compared in each peptide treatment condition.

[3] = tested on: collagen 1a, fibronectin, and elastin; test: Expression amount of collagen1a, fibronectin and elastin protein (antibody staining, fluorescence microscope); assay type: cell-based, mouse; details: NIH3T3, 24 hours
Experimental: Mouse fibroblast NIH3T3 was seeded in a 6-well plate at a density of 5×10^3 cells/well, and then cultured overnight. Subsequently, the media were changed to 0.05% serum-free media. Then, treatment with the positive control, i.e., 100 nM EGF, and the peptide consisting of an amino acid sequence of SEQ ID NO: 1 or 2 were performed and cultured for 24 hours. Then, the cells were fixed for 30 minutes using 4% paraformaldehyde. Then, after washing 3 times, the cells were reacted with 0.5% Triton X-100 for 15 minutes and washed again 3 times. Then, 3% BSA was blocked for 1 hour and the primary antibody (1:100) for collagen 1a, fibronectin, and elastin was reacted overnight at 4° C. Then, the secondary antibody (1:500) was reacted at room temperature for 2 hours, stained with DAPI staining, and observation was made with a fluorescence microscope.

| Substance | Fibroblast proliferation (result in words) (Mouse fibroblast NIH3T3) | Fibroblast proliferation (%) (Mouse fibroblast NIH3T3; peptide 10 μM) | Fibroblast proliferation (%) (Mouse fibroblast NIH3T3; peptide 50 μM) | Keratinocyte proliferation (%) (Human keratinocyte HaCaT; peptide 10 μM) | Keratinocyte proliferation (%) (Human keratinocyte HaCaT; peptide 50 μM) | Phosphorylation of MAPK and AKT in fibroblasts (result in words) [1] | mRNA expression of collagen, fibronectin and elastin (result in words) [2] | Pro-collagen1a protein expression (result in words) (Procollagen1a) | Procollagen1a expression (%) (Procollagen1a; peptide 10 μM) | Procollagen1a expression (%) (Procollagen1a; peptide 50 μM) | Keratinocyte proliferation (%) (Human keratinocyte HaCaT; positive control 10 nM) | Procollagen1a expression (%) (Procollagen1a; positive control 100 nM) | HA expression (HA; positive control 100 nM) [ng/mL] | Phosphorylation of MAPK in keratinocytes (result in words) (ERK and p38) | AQP3 expression (result in words) (AQP3) | Protein expression of collagen, fibronectin and elastin (result in words) [3] | HA expression (result in words) (HA; HaCaT, ELISA) | HA expression (HA; peptide 10 μM) [ng/mL] | HA expression (HA; peptide 50 μM) [ng/mL] | Fibroblast proliferation (%) (Mouse fibroblast NIH3T3; positive control 100 nM) |
| --- | --- | --- | --- | --- | --- | --- | --- | --- | --- | --- | --- | --- | --- | --- | --- | --- | --- | --- | --- | --- |
| EDEFKPPAAGR [SEQ ID NO: 4] | promote fibroblast proliferation | 114 | 193 | 113 | 142 | activation of MAPK (ERK, p38, and JNK) and AKT | increasing expression of mRNA of collagen, fibronectin, and elastin | expression of pro-collagen1a protein was found to increase | 122 | 141 | – | – | – | – | – | – | – | – | – | – |
| EGF: positive control, 10 nM EGF, in the keratinocyte tests [reference compound] | – | – | – | – | – | – | – | – | – | – | 187% and 142% and 152% | – | – | – | – | – | – | – | – | – |
| GPVH [SEQ ID NO: 3] | promote fibroblast proliferation | 194 | 261 | 183 | 197 | activation of MAPK (ERK, p38, and JNK) and AKT | increasing expression of mRNA of collagen, fibronectin, and elastin | expression of pro-collagen1a protein was found to increase | 138 | 143 | – | – | – | – | – | – | – | – | – | – |
| IGF-1: positive control, 100 nM IGF-1, in the ELISA and RT-PCR tests [reference compound] | – | – | – | – | – | – | – | – | – | – | – | 113% and 140% | 280 | – | – | – | – | – | – | – |
| ILGRWCG [SEQ ID NO: 2] | promote fibroblast proliferation | 188 | 253 | 111 | 119 | activation of MAPK (ERK, p38, and JNK) and AKT | increasing expression of mRNA of collagen, fibronectin, and elastin | expression of pro-collagen1a protein was found to increase | 145 | 146 | – | – | – | activation of ERK and p38 | increasing AQP3 expression | increasing expression of proteins of collagen, fibronectin, and elastin | increasing HA expression | 286 | 292 | – |
| KWGGGRY [SEQ ID NO: 1] | promote fibroblast proliferation | 170 | 194 | 120 | 136 | activation of MAPK (ERK, p38, and JNK) and AKT | increasing expression of mRNA of collagen, fibronectin, and elastin | expression of pro-collagen1a protein was found to increase | 98 | 157 | – | – | – | activation of ERK and p38 | increasing AQP3 expression | increasing expression of proteins of collagen, fibronectin, and elastin | – | – | – | – |
| bFGF: positive control, 100 nM bFGF, in the fibroblast tests [reference compound] | – | – | – | – | – | – | – | – | – | – | – | – | – | – | – | – | – | – | – | 386% and 279% and 400% |
